{"source": "patent EP1191024A1", "about": "“Thiadiazines and their use as inhibitors of metalloproteinases” (Tschesche, Harald, priority 2000, dated 2002)", "target": "T1, ΔTM-MMP-14 (Homo sapiens, UniProt P50281)", "T1 construct": "The ectodomain of MMP-14 was expressed in Pichia Pastoris; made in house; host or cells: Pichia pastoris", "assay": "MMP microfluorometric profiling assay (fluorogenic Mca-peptide substrate)", "type": "biochemical"}
{"smiles": "CC(C)(C)c1ccc(S(=O)(=O)NCC(=O)NC2=NN=C(c3ccc(Cl)cc3Cl)CS2)cc1", "note": "[Example 18, 2-{[(4-tert-Butylphenyl)sulfonyl]amino}-N-[5-(2,4-dichlorophenyl)-6H-1,3,4-thiadiazin-2-yl]acetamide]", "values": [{"measurement": "IC50", "result": 887, "unit": "nM"}]}
{"smiles": "C[C@@H](NS(=O)(=O)c1ccccc1)C(=O)NC1=NN=C(c2ccc(F)cc2)CS1", "note": "[Example 14, (2R)-N-[5-(4-Fluorophenyl)-6H-1,3,4-thiadiazin-2-yl]-2-[(phenylsulfonyl)amino]-propanamide]", "values": [{"measurement": "IC50", "result": 596, "unit": "nM"}]}
{"smiles": "O=C1C[C@@H](C(=O)NC2=NN=C(c3ccc(Cl)cc3)CS2)NC(=O)N1", "note": "[Example 30, (4S)-N-[5-(4-Chlorophenyl)-6H-1,3,4-thiadiazin-2-yl]-2,6-dioxohexahydro-4-pyrimidinecarboxamide]", "values": [{"measurement": "IC50", "result": 692, "unit": "nM"}]}
{"smiles": "CC(C)[C@@H](NS(=O)(=O)c1ccccc1)C(=O)NC1=NN=C(c2ccc(Cl)cc2)CS1", "note": "[Example 2, (2R)-N-[5-(4-Chlorophenyl)-6H-1,3,4-thiadiazin-2-yl]-3-methyl-2-[(phenylsulfonyl)amino]butanamide]", "values": [{"measurement": "IC50", "result": 593, "unit": "nM"}]}
{"smiles": "C[C@H](NS(=O)(=O)c1ccccc1)C(=O)NC1=NN=C(c2ccc(C#N)cc2)CS1", "note": "[Example 3, (2S)-N-[5-(4-Cyanophenyl)-6H-1,3,4-thiadiazin-2-yl]-2-[(phenylsulfonyl)amino]-propanamide]", "values": [{"measurement": "IC50", "result": 709, "unit": "nM"}]}
{"smiles": "C[C@H](NS(=O)(=O)c1ccccc1)C(=O)NC1=NN=C(c2ccc(Cl)s2)CS1", "note": "[Example 10, (2S)-N-[5-(5-Chloro-2-thienyl)-6H-1,3,4-thiadiazin-2-yl]-2-[(phenylsulfonyl)-amino]propanamide]", "values": [{"measurement": "IC50", "result": 357, "unit": "nM"}]}
{"smiles": "O=C(CC1NC(=O)NC1=O)NC1=NN=C(c2ccc(N3CCCC3)cc2)CS1", "note": "(stereo not shown) [Example 26, 2-(2,5-Dioxo-4-imidazolidinyl)-N-{5-[4-(1-pyrrolidinyl)phenyl]-6H-1,3,4-thiadiazin-2-yl}acetamide]", "values": [{"measurement": "percent inhibition", "setting": "ΔTM-MMP-14, @ 15 (µM)", "result": 63, "unit": "%^a)@ 15"}]}
{"smiles": "C[C@@H](NS(=O)(=O)c1ccccc1)C(=O)NC1=NN=C(c2ccc(C#N)cc2)CS1", "note": "[Example 1, (2R)-N-[5-(4-Cyanophenyl)-6H-1,3,4-thiadiazine-2-yl]-2-[(phenylsulfonyl)amino]-propanamide]", "values": [{"measurement": "IC50", "result": 610, "unit": "nM"}]}
{"smiles": "C[C@H](NS(=O)(=O)c1ccccc1)C(=O)NC1=NN=C(c2ccc(C(F)(F)F)cc2)CS1", "note": "[Example 4, (2S)-2-[(Phenylsulfonyl)amino]-N-{5-[4-(trifluormethyl)phenyl]-6H-1,3,4-thiadiazin-2-yl}propanamide]", "values": [{"measurement": "IC50", "result": 708, "unit": "nM"}]}
{"smiles": "C[C@H](NS(=O)(=O)c1cccnc1)C(=O)NC1=NN=C(c2ccc(Cl)cc2)CS1", "note": "[Example 29, (2S)-N-[5-(4-Chlorophenyl)-6H-1,3,4-thiadiazin-2-yl]-2-[(3-pyridylsulfonyl)-amino]propanamide]", "values": [{"measurement": "IC50", "result": 430, "unit": "nM"}]}
